{"source": "patent US20250114361A1", "about": "“PYRAZOLOPYRIMIDINE COMPOUND AND PHARMACEUTICAL USE THEREOF” (Japan Tobacco Inc., priority 2022, published 2025)", "origin": "cited, not measured here", "key": {"[1]": {"tested_on": "intra-articular urate-injected arthritis model", "settings": "in vivo; cited from earlier work"}, "[2]": {"tested_on": "intestinal perforation model", "settings": "in vivo; cited from earlier work"}, "[3]": {"tested_on": "pilocarpine-induced epilepsy model mice", "settings": "mouse, in vivo; cited from earlier work"}, "[4]": {"tested_on": "α-synuclein PFF injected mice", "settings": "mouse, in vivo; cited from earlier work"}, "[5]": {"tested_on": "mouse model of deoxycorticosterone acetate-salt", "settings": "in vivo; cited from earlier work"}, "[6]": {"tested_on": "maternal immune activation (MIA) model", "settings": "administration to the mother; cited from earlier work"}, "[7]": {"tested_on": "STZ-induced diabetic mice", "settings": "mouse, in vivo; cited from earlier work"}, "[8]": {"tested_on": "pathological models of depressive illness", "settings": "in vivo; cited from earlier work"}, "[9]": {"tested_on": "intracerebral bleeding model rats", "settings": "cited from earlier work"}, "[10]": {"tested_on": "mice with spinal cord injury", "settings": "mouse, in vivo; cited from earlier work"}, "[11]": {"tested_on": "middle cerebral artery occlusion (MCAO) mice", "settings": "MCAO model; cited from earlier work"}, "R6/2 mice": {"tested_on": "R6/2 mice", "settings": "mouse, in vivo; cited from earlier work"}, "[12]": {"tested_on": "mice infected with SARS-CoV-2", "settings": "mouse, in vivo; cited from earlier work"}, "microglia": {"tested_on": "microglia", "settings": "cited from earlier work"}, "TBI model mice": {"tested_on": "TBI model mice", "settings": "mouse, in vivo; cited from earlier work"}, "APP/PS1 mice": {"tested_on": "APP/PS1 mice", "settings": "mouse, in vivo; cited from earlier work"}, "[13]": {"tested_on": "mouse strain expressing CAPS-related NLRP3 mutations", "settings": "in vivo; cited from earlier work"}, "MOG35-55EAE model mice": {"tested_on": "MOG35-55EAE model mice", "settings": "administration after the onset; cited from earlier work"}}, "data": [{"compound": "CS(=O)(=O)CCC#N", "note": "[OLT1177]", "values": [{"measurement": "arthritis", "setting": "[1]", "value": "suppressed arthritis"}]}, {"compound": "CC(C)(O)c1coc(S(=O)(=O)NC(=O)Nc2c3c(cc4c2CCC4)CCC3)c1", "note": "[MCC950]", "values": [{"measurement": "NLRP3 inflammasome activation and memory impairment", "setting": "[2]", "value": "NLRP3 inflammasome activation is suppressed and the memory impairment is improved"}, {"measurement": "apoptosis of hippocampal neurons", "setting": "[3]", "value": "suppress apoptosis of hippocampal neurons"}, {"measurement": "NLRP3 activation and neuronal death of dopamine neurons in the substantia nigra", "setting": "[4]", "value": "inhibits NLRP3 activation in the substantia nigra and suppresses neuronal death of dopamine neurons in the substantia nigra"}, {"measurement": "hypertension", "setting": "[5]", "value": "suppress hypertension"}, {"measurement": "ASD symptoms in offspring", "setting": "[6]", "value": "suppresses ASD symptoms in offspring"}, {"measurement": "increased vascular permeability", "setting": "[7]", "value": "alleviated increased vascular permeability"}, {"measurement": "depressive symptoms", "setting": "[8]", "value": "improves depressive symptoms"}, {"measurement": "neuroprotective effects", "setting": "[9]", "value": "showed neuroprotective effects"}, {"measurement": "NLRP3 activation and IL-1β expression in the spinal cord, recovery of motor function", "setting": "[10]", "value": "NLRP3 activation and IL-1β expression in the spinal cord are suppressed, and the recovery of motor function is promoted"}, {"measurement": "neuroprotective effects", "setting": "[11]", "value": "showed neuroprotective effects"}, {"measurement": "NLRP3 inflammasome activation, neuronal death in the striatum, symptom progression", "setting": "R6/2 mice", "value": "inhibits NLRP3 inflammasome activation in the striatum of R6/2 mice, suppresses neuronal death in the striatum, and suppresses symptom progression"}, {"measurement": "NLRP3 inflammasome activation in the lung and dysregulated immune response", "setting": "[12]", "value": "inhibits NLRP3 inflammasome activation in the lung and suppresses the dysregulated immune response"}, {"measurement": "NLRP3 activation in microglia and IL-1β production", "setting": "microglia", "value": "inhibits SOD1G93A and TDP-43 protein-induced NLRP3 activation in microglia and decreases IL-1β production"}, {"measurement": "IL-1β production and neurological symptoms after brain injury", "setting": "TBI model mice", "value": "inhibits IL-1β production in TBI model mice and suppresses the development of neurological symptoms after brain injury"}, {"measurement": "NLRP3 activation in microglia and cognitive dysfunction", "setting": "APP/PS1 mice", "value": "suppresses NLRP3 activation in microglia and improves cognitive dysfunction"}]}, {"compound": "O=C(O)c1ccc(/C=C2/SC(=S)N(Cc3cccc(C(F)(F)F)c3)C2=O)cc1", "note": "[CY-09]", "values": [{"measurement": "systemic lethal inflammation and survival", "setting": "[13]", "value": "suppressed systemic lethal inflammation and improved the survival"}]}, {"compound": "COc1ccc(Cl)cc1C(=O)NCCc1ccc(S(=O)(=O)NO)cc1", "note": "[JC-171]", "values": [{"measurement": "impairment of motor function", "setting": "MOG35-55EAE model mice", "value": "inhibited the impairment of motor function"}]}]}
